# Laboratory results taken from US20250197428A1, “INHIBITORS OF KIF18A AND USES THEREOF” (ACCENT THERAPEUTICS, INC., priority 2022, published 2025).
# Where two headings read alike, the source gives them in different places.
# Columns and labels:
# KIF18A = KIF18A (Homo sapiens (Human), UniProt Q8NI77); assay: KIF18A Biochemical Assay (ATPase, ADP-Glo)
# OVCAR-3 cells = assay: In vitro anti-proliferative activity assay in cancer cell line OVCAR-3 (CellTiter-Glo, 4- or 7-day); type: cell-based; conditions: Homo sapiens, read-out: OVCAR-3 cellular antiproliferation assay IC50
# [1] = Caco-2 permeation assay, bidirectional permeability; type: in vitro ADME; conditions: human, Caco-2, pH 7.4, 5 μM, Papp(B-A)/Papp(A-B)
# Experimental: 1. Caco-2 Permeation Assay: Evaluation of the Bidirectional Permeabilities of Compounds.
# Samples were analyzed through LC/MS/MS for estimating the apparent permeability coefficients (Papp) of compounds across Caco-2 cell monolayers. Caco-2 cells (American Type Culture Collection) were incubated and seeded onto HTS Transwell-96 Well Permeable Supports (Corning Corporation) for 14 days using a cell medium consisting of Dulbecco's Modified Eagle's Medium (DMEM) with high glucose and L-glutamine supplemented with 10% FBS, 1× penicillin-streptomycin mixture and 1×non-essential amino acids (NEAA). Cell monolayer integrity was measured using an automated tissue resistance measuring system (World Precision Instruments). Stock solutions of compounds and control compounds in DMSO were diluted with HBSS (10 mM HEPES, pH 7.4) to reach a final concentration of 5 μM with a final concentration of DMSO <0.1%. HBSS was then removed after 30 minutes of preincubation, and 75 μL of test compound was added to the apical compartment of the Transwell insert. The basolateral compartment was filled with 235 μL of HBSS (10 mM HEPES, pH 7.4) containing 2% BSA. Rate of drug transport in the basolateral to apical direction was obtained by adding 235 μL of test compound to the receiver plate wells (basolateral compartment) and filling with 75 μL of HBSS (10 mM HEPES, pH 7.4) containing 2% BSA. Time 0 samples were prepared by transferring 25 μL of 5 μM working solution to wells of the 96-deepwell plate containing 25 μL HBSS (10 mM HEPES and 2% BSA, pH 7.4), followed by the addition 200 μL of cold methanol containing appropriate internal standards (100 nM alprazolam, 200 nM labetalol, 200 nM caffeine and 200 nM diclofenac). After incubating at 37° C. for 2 h, 25 μL samples from donor sides (apical compartment) were transferred to a 96-well plate containing 25 μL HBSS (10 mM HEPES and 2% BSA, pH 7.4). 25 μL samples from receiver sides (basolateral compartment) were removed and transferred to a new plate containing 25 μL HBSS (10 mM HEPES, pH 7.4). 200 μL of cold methanol containing internal standards (100 nM alprazolam, 200 nM labetalol, 200 nM caffeine and 200 nM diclofenac) was added to terminate the reaction. Samples were vortexed for 5 minutes and then centrifuged at 3,220 g for 40 minutes. An aliquot of 100 μL of the supernatant is mixed with 100 μL of ultra-pure water for LC-MS/MS analysis. All incubations are performed in duplicate. Solutions were discarded from the transwell plate. 100 μL Lucifer Yellow solution (100 μM in HBSS) was added to each well of transwell insert and 300 μL of HBSS to each well of receiver. After incubating at 37° C. for 30 minutes, 80 μL was aliquotted from each well of apical and basolateral sides to a solid black plate. The plate was then read with Tecan Infinite™ M 200 (Excitation/Emission wavelength […]).
# All calculations were carried out using Microsoft Excel. Peak areas were determined from extracted ion chromatograms. The leakage of Lucifer Yellow, in unit of percentage (%), can be calculated using the following equation: […]
# LY leakage of <1% is acceptable to indicate the well-qualified Caco-2 monolayers. The apparent permeability coefficient (Papp), in units of centimeter per second, can be calculated for Caco-2 drug transport assays using the following equation: […]
# Where VA is the volume (in mL) in the receiver well (0.235 mL for Ap→Bl flux and 0.075 mL for Bl→Ap flux), Area is the surface area of the membrane (0.143 cm^2 for HTS Transwell-96 Well Permeable Supports), and time is the total transport time in seconds. The efflux ratio can be determined using the following equation: […]
# Where Papp (B-A) indicates the apparent permeability coefficient in basolateral to apical direction, and Papp (A-B) indicates the apparent permeability coefficient in apical to basolateral direction.
# The recovery can be determined using the following equation: […]
# Sequence of KIF18A (Q8NI77 1-367): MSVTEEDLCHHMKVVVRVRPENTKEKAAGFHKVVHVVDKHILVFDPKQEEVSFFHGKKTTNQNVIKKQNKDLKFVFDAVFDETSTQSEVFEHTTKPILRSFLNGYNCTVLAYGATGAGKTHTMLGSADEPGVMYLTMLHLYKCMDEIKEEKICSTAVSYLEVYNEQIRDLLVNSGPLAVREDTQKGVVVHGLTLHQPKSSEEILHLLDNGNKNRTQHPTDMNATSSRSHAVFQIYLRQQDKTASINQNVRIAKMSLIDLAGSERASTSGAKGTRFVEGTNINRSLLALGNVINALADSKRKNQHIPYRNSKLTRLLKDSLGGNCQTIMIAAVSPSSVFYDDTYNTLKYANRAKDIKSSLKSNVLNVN
# Sequence of KIF18A (P02550 whole entry partner): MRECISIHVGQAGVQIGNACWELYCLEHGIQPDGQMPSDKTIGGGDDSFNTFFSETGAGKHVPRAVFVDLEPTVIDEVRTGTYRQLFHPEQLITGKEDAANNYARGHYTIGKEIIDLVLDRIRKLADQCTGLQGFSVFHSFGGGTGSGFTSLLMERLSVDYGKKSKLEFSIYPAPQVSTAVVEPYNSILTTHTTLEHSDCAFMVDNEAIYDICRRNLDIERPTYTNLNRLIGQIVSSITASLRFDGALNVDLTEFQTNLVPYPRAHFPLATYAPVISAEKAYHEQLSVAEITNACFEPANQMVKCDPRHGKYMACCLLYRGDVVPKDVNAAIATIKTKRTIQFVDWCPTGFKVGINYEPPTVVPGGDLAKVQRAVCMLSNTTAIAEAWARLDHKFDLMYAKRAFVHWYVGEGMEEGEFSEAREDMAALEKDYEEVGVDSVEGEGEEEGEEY
# Sequence of KIF18A (P02554 whole entry partner): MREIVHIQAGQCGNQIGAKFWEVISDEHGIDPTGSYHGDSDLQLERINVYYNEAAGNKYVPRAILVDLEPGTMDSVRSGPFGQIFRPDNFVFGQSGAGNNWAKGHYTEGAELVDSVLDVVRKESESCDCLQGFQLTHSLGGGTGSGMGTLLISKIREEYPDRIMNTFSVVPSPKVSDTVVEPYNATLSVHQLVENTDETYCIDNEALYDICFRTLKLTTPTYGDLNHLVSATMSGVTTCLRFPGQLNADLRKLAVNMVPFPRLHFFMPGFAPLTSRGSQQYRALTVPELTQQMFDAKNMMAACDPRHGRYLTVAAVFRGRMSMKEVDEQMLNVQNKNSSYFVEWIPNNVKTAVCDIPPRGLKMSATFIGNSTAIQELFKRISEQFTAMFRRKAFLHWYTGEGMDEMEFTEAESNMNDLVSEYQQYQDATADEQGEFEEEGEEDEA
SMILES,IC50 (KIF18A),"IC50 (OVCAR-3 cells; OVCAR-3, 168 h, 7-day assay)","efflux ratio at 2 h, 5 μM [1]","IC50 (OVCAR-3 cells; OVCAR-3, 96 h, 4-day assay)"
"COC[C@@]12CCN(c3cc(NS(=O)(=O)CCO)ccc3C(=O)Nc3cc(C)nc(N4CCC(F)(F)CC4)n3)C[C@@H]1C2 (single isomer, unassigned) [Example 49b]",< 100 nM,< 100 nM,< 10,
"Cc1ccc(NC(=O)c2ccc(NS(=O)(=O)CCO)cc2N2CC[Si](C)(C)CC2)nc1N1CCOCC1 [Example 2, 2-(4,4-dimethyl-1,4-azasilinan-1-yl)-4-((2-hydroxyethyl)sulfonamido)-N-(5-methyl-6-morpholinopyridin-2-yl)benzamide]",< 100 nM,,< 10,< 100 nM
"CC(C)(C)NS(=O)(=O)c1cccc(NC(=O)c2ccc(NS(=O)(=O)C(C)(C)C)cc2N2CC[Si](C)(C)CC2)c1 [Example 4, N-(3-(N-(tert-butyl)sulfamoyl)phenyl)-2-(4,4-dimethyl-1,4-azasilinan-1-yl)-4-((1,1-dimethylethyl)sulfonamido)benzamide]",500 to 1000 nM,,< 10,100 to 500 nM
"Cc1cc(NC(=O)c2ccc(NS(=O)(=O)CCO)cc2N2CC[Si](C)(C)CC2)nc(N2CCOCC2)c1 [Example 5, 2-(4,4-dimethyl-1,4-azasilinan-1-yl)-4-((2-hydroxyethyl)sulfonamido)-N-(4-methyl-6-morpholinopyridin-2-yl)benzamide]",< 100 nM,,< 10,< 100 nM
"C[Si]1(C)CCN(c2cc(NS(=O)(=O)CCO)ccc2C(=O)Nc2cccc(N3CCC(F)(F)CC3)c2)CC1 [Example 6, N-(3-(4,4-difluoropiperidin-1-yl)phenyl)-2-(4,4-dimethyl-1,4-azasilinan-1-yl)-4-((2-hydroxyethyl)sulfonamido)benzamide]",< 100 nM,,< 10,< 100 nM
"C[Si]1(C)CCN(c2cc(NS(=O)(=O)CCO)ccc2C(=O)Nc2ccnc(N3CCC(F)(F)CC3)c2)CC1 [Example 7, N-(2-(4,4-difluoropiperidin-1-yl)pyridin-4-yl)-2-(4,4-dimethyl-1,4-azasilinan-1-yl)-4-((2-hydroxyethyl)sulfonamido)benzamide]",< 100 nM,,≥ 10,< 100 nM
"Cc1cc(NC(=O)c2ccc(NS(=O)(=O)CCO)cc2N2CC[Si](C)(C)CC2)nc(N2CCC(F)(F)CC2)c1 [Example 8, N-(6-(4,4-difluoropiperidin-1-yl)-4-methylpyridin-2-yl)-2-(4,4-dimethyl-1,4-azasilinan-1-yl)-4-((2-hydroxyethyl)sulfonamido)benzamide]",100 to 500 nM,,< 10,< 100 nM
C[Si]1(C)CCN(c2cc(NS(=O)(=O)CCO)ccc2C(=O)Nc2ccnc(OCCC(F)(F)F)n2)CC1 [Example 10],< 100 nM,,≥ 10,500 to 1000 nM
CC1CN(c2nccc(NC(=O)c3ccc(NS(=O)(=O)CCO)cc3N3CC[Si](C)(C)CC3)n2)CCO1 (stereo not drawn) [Example 11],< 100 nM,,< 10,< 100 nM
O=C(Nc1ccnc(N2CCC(F)(F)CC2)n1)c1cc2cnn(CCO)c2cc1N1CCC2(CC1)CC2 [Example 12],500 to 1000 nM,,< 10,> 1000 nM
C[Si]1(C)CCN(c2cc(NS(=O)(=O)CCO)ccc2C(=O)Nc2cccc(OCCC(F)(F)F)n2)CC1 [Example 16],< 100 nM,,< 10,< 100 nM
C[Si]1(C)CCN(c2cc(NS(=O)(=O)CCO)c(F)cc2NC(=O)c2ccnc(N3CCC(F)(F)CC3)n2)CC1 [Example 90],,100 to 500 nM,< 10,
C[Si]1(C)CCN(c2cc(NS(=O)(=O)CCO)ccc2C(=O)Nc2ccnc(N3CCCC(C#N)C3)n2)CC1 (stereo not drawn) [Example 94],,,< 10,100 to 500 nM
C[Si]1(C)CCN(c2cc(NS(=O)(=O)CCO)ccc2NC(=O)c2cccc(N3CCC(F)(F)CC3)n2)CC1 [Example 96],,,< 10,< 100 nM
